Test results as given in patent US9670226B2, “Sesquiterpenoids” (National Institute of Biological Sciences, Beijing, priority 2014, dated 2017).

Key:
[1] = system: production of NO in a mouse macrophage cell line RAW264.7; settings: RAW264.7 stimulated by LPS; previously shown (ref 22); cited from earlier work
[2] = system: panel of structurally related kinases
TAK1 = TAK1 (Homo sapiens, UniProt O43318); assay: Association with other NF-κB pathway proteins; type: binding
IKKα Cys46 into serine = molecular target: T1, IKKα Cys46 into serine (Homo sapiens, UniProt O15111, C46S); assay: Binding to Cys46-to-serine mutant
T1 construct: Flag; made in house
T1 sequence (O15111 whole entry C46S): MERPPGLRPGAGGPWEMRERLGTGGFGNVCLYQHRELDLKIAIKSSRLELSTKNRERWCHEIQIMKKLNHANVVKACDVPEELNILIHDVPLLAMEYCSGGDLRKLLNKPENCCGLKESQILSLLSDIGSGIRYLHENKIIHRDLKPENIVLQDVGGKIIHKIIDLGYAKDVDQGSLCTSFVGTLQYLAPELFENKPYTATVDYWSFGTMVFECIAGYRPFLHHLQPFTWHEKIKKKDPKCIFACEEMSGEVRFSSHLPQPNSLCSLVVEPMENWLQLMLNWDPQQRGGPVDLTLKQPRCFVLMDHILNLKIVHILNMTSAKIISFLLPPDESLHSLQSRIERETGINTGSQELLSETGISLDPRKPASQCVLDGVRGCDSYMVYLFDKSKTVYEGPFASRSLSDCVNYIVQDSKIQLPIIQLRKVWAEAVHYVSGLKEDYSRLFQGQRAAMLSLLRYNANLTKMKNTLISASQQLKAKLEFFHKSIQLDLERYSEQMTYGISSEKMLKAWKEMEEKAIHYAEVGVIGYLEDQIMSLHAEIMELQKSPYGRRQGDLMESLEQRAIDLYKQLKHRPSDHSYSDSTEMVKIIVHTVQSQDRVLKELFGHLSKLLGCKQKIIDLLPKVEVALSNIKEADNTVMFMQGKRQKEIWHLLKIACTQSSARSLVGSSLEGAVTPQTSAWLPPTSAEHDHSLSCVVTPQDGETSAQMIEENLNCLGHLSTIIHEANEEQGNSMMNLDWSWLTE

[3] = system: gastric adenocarcinoma BCG-823 cells; assay: Cancer cell survival; type: cell-based, human
[4] = system: cervical cancer HeLa cells; assay: Cancer cell survival; type: cell-based, human
IKKβ Cys46 into serine = molecular target: T2, IKKβ Cys46 into serine (Homo sapiens, UniProt O14920, C46S); assay: Binding to Cys46-to-serine mutant
T2 construct: Flag; made in house
T2 sequence (O14920 whole entry C46S): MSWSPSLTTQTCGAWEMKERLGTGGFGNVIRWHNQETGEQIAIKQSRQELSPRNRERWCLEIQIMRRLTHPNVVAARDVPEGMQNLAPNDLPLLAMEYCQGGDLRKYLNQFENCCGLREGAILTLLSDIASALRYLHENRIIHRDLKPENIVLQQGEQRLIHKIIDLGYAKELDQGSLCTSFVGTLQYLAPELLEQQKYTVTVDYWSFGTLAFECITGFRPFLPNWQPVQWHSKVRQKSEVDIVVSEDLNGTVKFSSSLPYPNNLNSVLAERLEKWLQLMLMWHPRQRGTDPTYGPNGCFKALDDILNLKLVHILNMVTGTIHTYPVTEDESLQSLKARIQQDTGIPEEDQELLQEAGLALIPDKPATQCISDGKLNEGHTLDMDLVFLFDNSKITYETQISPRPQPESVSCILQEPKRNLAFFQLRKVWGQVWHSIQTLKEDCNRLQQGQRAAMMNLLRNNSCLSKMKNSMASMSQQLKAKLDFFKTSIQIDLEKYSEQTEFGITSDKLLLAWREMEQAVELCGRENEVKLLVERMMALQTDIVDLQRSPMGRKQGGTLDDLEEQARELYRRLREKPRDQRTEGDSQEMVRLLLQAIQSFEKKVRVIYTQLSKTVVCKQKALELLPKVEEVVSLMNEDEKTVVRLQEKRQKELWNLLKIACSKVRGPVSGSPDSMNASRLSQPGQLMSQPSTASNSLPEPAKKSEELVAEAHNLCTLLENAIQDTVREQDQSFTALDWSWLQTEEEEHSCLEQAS

C46A-IKKβ = C46A-IKKβ (Homo sapiens, UniProt O14920, C46A); assay: In vitro kinase assay with Flag-IκBα substrate
Chain of C46A-IKKβ (O14920 whole entry C46A): as the sequence (O14920 whole entry C46S) above, with S46A counted along it

phosphorylation of IκBα = assay: TNF induced IκBα phosphorylation in different cell lines; type: cell-based
IKKβ C46A = molecular target: T3, IKKβ C46A (Homo sapiens, UniProt O14920, C46A); assay: Binding to IKKβ cysteine mutants
T3 construct: Flag; made in house
T3 sequence (O14920 whole entry C46A): as the sequence (O14920 whole entry C46S) above, with S46A counted along it

[5] = system: LPS-triggered inflammatory response (serum TNF-α, IL-6, IL-1β); assay: LPS induced inflammatory cytokines in vivo; settings: mice pre-injected with compound, then LPS
Excerpt: (+)-Ainsliadimer A (223) is a structurally unique and complex sesquiterpene lactone dimer with an unprecedented carbon skeleton, which was originally isolated from Ainsliaea macrocephala used in traditional Chinese medicine for the treatment of various diseases, including angina and rheumatoid arthritis^22. Aiming for the systematical chemical genetic studies using bioactive natural products, we have successfully accomplished the first enantioselective total syntheses of 223 as well as other related dimeric and trimeric sesquiterpenoids^23-25, which provided us ample material to extensively investigate their biological activities and potential therapy application. […] As an endotoxin, LPS is known to cause a systemic inflammatory response and acute tissue injury when injected into mice. Thus, we attempt to examine the effect of 223 on LPS-triggered inflammatory response in vivo. Mice were pre-injected with or without vehicle or 223, and then followed by administration of PBS or LPS.

WT-IKKβ = WT-IKKβ (Homo sapiens, UniProt O14920); assay: In vitro kinase assay with Flag-IκBα substrate
IKKβ = molecular target: T4, IKKβ (Homo sapiens, UniProt O14920); assay: IKKβ kinase inhibition; type: biochemical; settings: read-out: IC50 against IKKβ
T4 sequence (O14920 1-756): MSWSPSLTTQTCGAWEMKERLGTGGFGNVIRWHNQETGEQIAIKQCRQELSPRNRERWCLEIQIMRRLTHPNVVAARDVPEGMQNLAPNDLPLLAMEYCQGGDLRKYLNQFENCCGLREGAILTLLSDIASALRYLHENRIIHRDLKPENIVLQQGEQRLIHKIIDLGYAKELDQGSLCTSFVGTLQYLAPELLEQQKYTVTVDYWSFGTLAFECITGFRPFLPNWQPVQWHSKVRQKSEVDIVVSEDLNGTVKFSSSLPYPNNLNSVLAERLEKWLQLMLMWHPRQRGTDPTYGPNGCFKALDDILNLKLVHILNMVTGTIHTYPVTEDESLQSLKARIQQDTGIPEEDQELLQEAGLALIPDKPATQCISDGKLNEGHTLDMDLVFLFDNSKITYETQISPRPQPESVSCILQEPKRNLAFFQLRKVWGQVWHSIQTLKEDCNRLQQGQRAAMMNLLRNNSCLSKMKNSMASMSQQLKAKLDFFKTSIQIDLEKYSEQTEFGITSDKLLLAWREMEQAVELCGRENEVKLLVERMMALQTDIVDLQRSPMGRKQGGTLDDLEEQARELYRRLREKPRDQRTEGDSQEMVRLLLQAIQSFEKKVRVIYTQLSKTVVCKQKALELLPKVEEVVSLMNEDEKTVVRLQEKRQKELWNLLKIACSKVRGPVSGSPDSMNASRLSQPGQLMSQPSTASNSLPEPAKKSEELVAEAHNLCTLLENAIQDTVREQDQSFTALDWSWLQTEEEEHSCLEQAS
Excerpt: To further explore how (+)-ainsliadimer A inactivates IKKα/β, we conducted the molecular dynamics (MD) simulations using the first crystal structure of IKKβ^29 to sample the conformational states of IKKβ upon 223 binding. […] We next asked whether 223 could directly affect IKKβ kinase activity.

recombinant Flag-IKKβ = molecular target: T5, recombinant Flag-IKKβ (Homo sapiens, UniProt O14920); assay: Binding to purified recombinant protein (SDS-PAGE, streptavidin blot); settings: excess unlabeled compound
T5 construct: made in house; host or cells: 293T cells (transient transfection, anti-Flag purification)
Experimental: To determine whether 223 directly binds to IKKα and IKKβ, we generated recombinant IKKα and IKKβ proteins for further analysis. 293T cells were transfected with Flag-IKKα or Flag-IKKβ plasmid, and the recombinant Flag-IKKα or Flag-IKKβ was captured by anti-Flag agarose beads and was then eluted off the beads using Flag peptide. The purified Flag-IKKα or Flag-IKKβ was incubated with DMSO or increasing concentrations of Probe, and then the mixtures were resolved by SDS-PAGE, followed by immunoblotting with streptavidin or anti-Flag antibody.

[6] = molecular target: T6, IKKβ C46 containing peptide (#1, #2; amino acids 41-53) (Homo sapiens, UniProt O14920); assay: Peptide binding by MALDI-TOF
T6 construct: encompasses amino acids 41-53 of human IKKβ; made in house; host or cells: chemical peptide synthesis
Experimental: (§1) This peptide was tested for binding to 223 and probe by using MALDI-TOF (Matrix-Assisted […] Desorption/Ionization Time of Flight). m/z values at 2,047.978 and 2,479.259 were well matched with the calculated weights of #1+223 and #1+Probe, respectively. […] As expected, the peptide #2 containing amino acids 41-53 of human IKKβ interacted with both 223 and probe.

[7] = system: IKKβ C46 containing peptide (#1, #2; amino acids 41-53); assay: Peptide binding by MALDI-TOF; set-up: species or system human
Experimental: as §1

Chain of TAK1 (O43318 whole entry): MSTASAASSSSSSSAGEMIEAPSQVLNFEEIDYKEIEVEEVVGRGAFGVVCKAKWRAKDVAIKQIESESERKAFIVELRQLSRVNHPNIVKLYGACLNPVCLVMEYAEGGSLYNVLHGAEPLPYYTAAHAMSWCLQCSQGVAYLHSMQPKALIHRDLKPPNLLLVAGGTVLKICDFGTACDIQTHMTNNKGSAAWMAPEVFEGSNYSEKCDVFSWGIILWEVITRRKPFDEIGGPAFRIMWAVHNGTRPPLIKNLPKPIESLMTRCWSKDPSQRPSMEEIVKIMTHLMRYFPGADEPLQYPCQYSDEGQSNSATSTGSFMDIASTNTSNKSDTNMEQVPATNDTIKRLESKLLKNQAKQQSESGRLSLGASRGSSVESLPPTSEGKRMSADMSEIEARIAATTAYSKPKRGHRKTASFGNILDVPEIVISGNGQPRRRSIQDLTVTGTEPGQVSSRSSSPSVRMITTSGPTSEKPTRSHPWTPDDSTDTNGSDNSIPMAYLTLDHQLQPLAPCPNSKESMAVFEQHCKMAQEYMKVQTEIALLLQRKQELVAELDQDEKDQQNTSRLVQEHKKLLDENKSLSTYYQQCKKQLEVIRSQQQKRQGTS

C=C1C(=O)O[C@@H]2[C@@H]3[C@@H](C[C@@]4(O)[C@]3(O)CC[C@]43C(=O)C[C@H]4C(=C)CC[C@H]5C(=C)C(=O)O[C@@H]5[C@H]43)C(=C)CC[C@@H]12 [Compound 223, (+)-Ainsliadimer A]
inhibitory activity against the production of NO [1]: inhibitory activity
selectivity against a panel of structurally related kinases [2]: excellent selectivity
association with TAK1 (TAK1): no association
interaction with IKKα Cys46 to serine mutant (IKKα Cys46 into serine): abolished
inhibition of cell survival (cell viability by ATP levels) ([3]; BCG-823, 48 hours): dose response inhibition
cell death ([3]; BCG-823, different concentration): Dramatic cell death
inhibition of cell survival (cell viability by ATP levels) ([4]; 48 hours): dose response inhibition
cell death ([4]; different concentration): Dramatic cell death
interaction with IKKβ Cys46 to serine mutant (IKKβ Cys46 into serine): abolished
phosphorylation of IκBα triggered by C46A-IKKβ (C46A-IKKβ): resistant
TNF induced phosphorylation of IκBα (phosphorylation of IκBα): significantly inhibited
interaction of IKKβ C46A mutant with compound (IKKβ C46A): completely lost the ability to interaction
up-regulation of serum IL-1β [5]: greatly attenuated
up-regulation of serum IL-6 [5]: greatly attenuated
up-regulation of serum TNF-α [5]: greatly attenuated
WT-IKKβ-induced phosphorylation of IκBα (WT-IKKβ): significantly suppressed
IC50 (IKKβ): 76 nM
competition of Probe binding to recombinant IKKβ (recombinant Flag-IKKβ): competed off
binding to peptide #1 [6]: could bind
interaction with peptide #2 [7]: interacted
